Among the test systems are SF-295 CNS; MALME-3M melanoma; SF-268 CNS; KM12 colon; T-47D breast; MCF7 breast; HL-60(TB) leukemia; NCI-H522 lung; IGROV1 ovarian; SW-620 colon; NCI/ADR-RES ovarian; OVCAR-8 ovarian; CCRF-CEM leukemia; EKVX NSCLC; OVCAR-4 ovarian; RPMI-8226 leukemia; NCI-H460 lung; OVCAR-3 ovarian; K-562 leukemia; HOP-92 NSCLC.
Common to all, as to assay: NCI anticancer screen, dose series, 48 h

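Five concentrations, 48 hours, 96-well plates. TGI is the concentration that stops growth completely.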 A value given as a limit tells only on which side of the number the result lay.

For the molecule `CCOC(=O)C1(C/C=C/CBr)CCc2ccccc2C1=O` (centres undefined), the TGI in the test on SF-295 CNS is 32.9 µM; with MALME-3M melanoma, 41.3 µM; in the test on SF-268 CNS, 46 µM; with KM12 colon it was 30.7 µM; in the test on T-47D breast, 34.8 µM; in the test on MCF7 breast, 33.5 µM. Besides, the TGI in the test with HL-60(TB) leukemia was over 100 µM; in the test on NCI-H522 lung it was 31.9 µM; with IGROV1 ovarian, 26.2 µM; in the test on SW-620 colon, 30.3 µM; in the test on NCI/ADR-RES ovarian, 63.5 µM; with OVCAR-8 ovarian it was 36.7 µM. Moreover, the TGI was over 100 µM in the test on CCRF-CEM leukemia, 55 µM in the test with EKVX NSCLC and 29.7 µM in the test on OVCAR-4 ovarian.

With `Oc1cc(O)cc(-c2nc3cc(F)ccc3s2)c1`, the TGI with SF-295 CNS was 36 µM; in the test on RPMI-8226 leukemia, 50.2 µM; in the test with NCI-H460 lung, 54 µM; with MALME-3M melanoma, over 100 µM; with SF-268 CNS, 50.8 µM; with KM12 colon it was 52.1 µM. In addition, the TGI was 51.4 µM in the test with T-47D breast; 64.6 µM with MCF7 breast; 36.9 µM in the test with NCI-H522 lung; 63.6 µM in the test on OVCAR-3 ovarian; 70.9 µM in the test on IGROV1 ovarian; over 100 µM in the test with SW-620 colon. Also, the TGI is over 100 µM with NCI/ADR-RES ovarian, 64.8 µM in the test with OVCAR-8 ovarian, over 100 µM with CCRF-CEM leukemia and 63.7 µM with OVCAR-4 ovarian.

For the molecule `COc1ccc(C2OC(N)=C(C#N)C3=C2CCCC3C)cc1OC` (centres undefined), the TGI in the test with SF-295 CNS, in the test with RPMI-8226 leukemia, with NCI-H460 lung, with MALME-3M melanoma, in the test on SF-268 CNS and in the test with KM12 colon was over 100 µM throughout. Further, the TGI in the test with T-47D breast, in the test on MCF7 breast, in the test on HL-60(TB) leukemia, with OVCAR-3 ovarian, in the test on IGROV1 ovarian and in the test on SW-620 colon was over 100 µM in each case. Also, the TGI with NCI/ADR-RES ovarian, with OVCAR-8 ovarian, in the test on CCRF-CEM leukemia, with K-562 leukemia and in the test with EKVX NSCLC was over 100 µM in each case.

For `Cc1cc(C)c2c(c1)C/C(=C\c1ccccc1C(=O)O)C2=O`, the TGI in the test on SF-295 CNS is over 100 µM; in the test with RPMI-8226 leukemia, over 100 µM; with NCI-H460 lung it was 26.4 µM; with HOP-92 NSCLC it was over 100 µM; in the test with MALME-3M melanoma, over 100 µM; in the test with SF-268 CNS, over 100 µM. Also, the TGI in the test on KM12 colon, in the test with T-47D breast, with MCF7 breast, with HL-60(TB) leukemia, in the test on NCI-H522 lung and in the test with OVCAR-3 ovarian was over 100 µM each time. Moreover, the TGI with IGROV1 ovarian, with SW-620 colon, in the test with OVCAR-8 ovarian, with CCRF-CEM leukemia, in the test with K-562 leukemia and in the test with EKVX NSCLC was over 100 µM throughout. Also, the TGI with OVCAR-4 ovarian was over 100 µM.

As to `CC(C)N(C(=O)C1(O)c2ccccc2C=Cc2ccccc21)C(C)C`, the TGI was 33.7 µM with SF-295 CNS; over 100 µM in the test with RPMI-8226 leukemia; 31.5 µM with MALME-3M melanoma; 36 µM with SF-268 CNS; 49.7 µM in the test on KM12 colon; 37.1 µM in the test with T-47D breast. The TGI with MCF7 breast turned out to be 31 µM; in the test with NCI-H522 lung, 25.3 µM; in the test on OVCAR-3 ovarian, 31.3 µM; in the test on IGROV1 ovarian it was 28.8 µM; with SW-620 colon, 31.3 µM; in the test with NCI/ADR-RES ovarian, 35.4 µM. Moreover, the TGI came to 30.5 µM in the test with OVCAR-8 ovarian, 32.5 µM with EKVX NSCLC and 52 µM in the test on OVCAR-4 ovarian.

Turning to `COc1ccc(-c2nc(-c3cc4c(ccc5ccccc54)oc3=O)cs2)cc1`, the TGI with SF-295 CNS, in the test on RPMI-8226 leukemia, with NCI-H460 lung, with HOP-92 NSCLC, in the test on SF-268 CNS and in the test with KM12 colon was over 100 µM in each case. Also, the TGI with T-47D breast, in the test on MCF7 breast, with HL-60(TB) leukemia, in the test on IGROV1 ovarian, in the test with SW-620 colon and in the test on CCRF-CEM leukemia was over 100 µM throughout. For the same molecule, the TGI in the test on K-562 leukemia, in the test with EKVX NSCLC and in the test with OVCAR-4 ovarian was over 100 µM each time.

`C#CC(C)(C)OC(=O)C(=[N+]=[N-])C(C)=O`: the TGI with SF-295 CNS, with RPMI-8226 leukemia, in the test with NCI-H460 lung, in the test on HOP-92 NSCLC, in the test with MALME-3M melanoma and in the test with SF-268 CNS was over 10 µM in each case. Moreover, the TGI in the test with KM12 colon, with T-47D breast, in the test with MCF7 breast, in the test with HL-60(TB) leukemia, with OVCAR-3 ovarian and with IGROV1 ovarian was over 10 µM throughout. Further, the TGI in the test with SW-620 colon, with OVCAR-8 ovarian, in the test with CCRF-CEM leukemia, in the test with K-562 leukemia and with EKVX NSCLC was over 10 µM throughout.

The record behind these values is PubChem BioAssay (NCI).
